Experimental data taken from patent US20220132846A1, “1-PYRIDYL-PYRAZOLYL AMIDE COMPOUNDS AND PREPARATION AND USES THEREOF” (HUNAN RESEARCH INSTITUTE OF CHEMICAL INDUSTRY CO., LTD., priority 2019, published 2022).

What was measured:
Format in all cases: in vivo
[1] = tested on: Armyworm (Mythimna separata (Walker)); assay: Test against armyworm, Potter tower method; conditions: for mortality at 12.5 µg/mL / mortality at 50 µg/mL / mortality at 500 µg/mL: Mythimna separata, third-instar larvae, after 72 hours, read-out: Activity (mortality) level against armyworm; for mortality at 12.5 µg/mL: 12.5 mg/L; for mortality at 50 µg/mL: 50 mg/L; for mortality at 500 µg/mL: 500 mg/L; for Activity against armyworm, further screening (in words): compared with chlorantraniliprole (D1)
Procedure, shortened: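 Third-instar larvae, ten per dish on corn leaf fragments, were sprayed in a Potter tower with 1 mL of compound in DMF diluted in 0.2% Tween 80, in triplicate. Mortality was scored after 72 h and reported as mean mortality against a solvent blank.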

[2] = tested on: Spodoptera litura (Fabricius); assay: Test against Spodoptera litura, leaf disc dip; conditions: after 72 hours; for Median lethal concentration LC50 against Spodoptera litura, compared with D1: same conditions; for Activity against Spodoptera litura (in words): second-instar larvae
Experimental: (§1) The test compound was dissolved in an appropriate solvent such as N,N-dimethylformamide, and then diluted with 0.2% aqueous solution of Tween 80 to the desired concentration, Those without the test compounds were set as blank controls, the treatments were replicated 3 times. The cabbage leaves were perforated to get 18 mm diameter leaf discs by a hole puncher, 5 leaf discs were dipped in the test solution for 10 seconds and then put into a Petri dish (diameter 90 mm) padded with moisturizing filter paper, after air-drying, the leaf discs were infested with no less than ten second-instar larvae of test insects which were starved for 4 hours, and then the dish was covered and placed in a chamber for culture. After 72 hours, the number of dead insects was investigated, the mortality was calculated, and the regression equation, correlation coefficient (r) and the median lethal concentration (LC50) were obtained using Probit analysis method.

[3] = tested on: Diamondback moth (Plutella xylostella (Linnaeus)); assay: Test against diamondback moth, leaf disc dip; conditions: after 72 hours; for LC50: Plutella xylostella, foliar, read-out: Lethal medium concentration LC50 against diamondback moth; for Activity against diamondback moth (in words): second-instar larvae
Experimental: as §1

[4] = tested on: Aphis fabae; assay: Test against aphid, leaf dip method (Aphis fabae); conditions: foliar; for mortality at 12.5 µg/mL: 12.5 mg/L; for mortality at 12.5 µg/mL / mortality at 50 µg/mL / mortality at 200 µg/mL / mortality at 500 µg/mL: after 24 hours, read-out: Activity (mortality) level against Aphis fabae; for mortality at 50 µg/mL: 50 mg/L; for mortality at 200 µg/mL: 200 mg/L; for mortality at 500 µg/mL: 500 mg/L; for LC50: further test, read-out: LC50 against Aphis fabae
Procedure, shortened: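 Horsebean seedlings carrying at least twenty 3-day-old Aphis fabae dipped 5 seconds in compound solutions (DMF, diluted in 0.2% aqueous Tween 80), three replicates with solvent blank. Live and dead insects counted after 24 hours.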

CNC(=O)c1cc(Cl)cc(Cl)c1N(C)C(=O)c1cc(Br)nn1-c1ncccc1Cl [Compound 1, N-[2,4-dichloro-6-[(methylamino)carbonyl]phenyl]-N-methyl-1-(3-chloro-2-pyridinyl)-3-bromo-1H-pyrazole-5-carboxamide]
Activity against armyworm ([1]; 1.25 mg/L): 75% | mortality at 12.5 µg/mL [1]: 90 to 100% | mortality at 50 µg/mL [1]: 90 to 100% | mortality at 500 µg/mL [1]: 90 to 100% | Activity against armyworm, further screening (in words) [1]: excellent activity | Median lethal concentration LC50 against Spodoptera litura, compared with D1 [2]: lower than that of chlorantraniliprole (D1) | Activity against Spodoptera litura (in words) [2]: high activity at very low concentration | LC50 [3]: < 1 µg/mL | Activity against diamondback moth (in words) [3]: high activity at very low concentration | mortality at 12.5 µg/mL [4]: 90 to 100% | mortality at 50 µg/mL [4]: 90 to 100% | mortality at 200 µg/mL [4]: 90 to 100% | mortality at 500 µg/mL [4]: 90 to 100% | LC50 [4]: < 1 µg/mL

CCNC(=O)c1cc(Cl)cc(Cl)c1N(C)C(=O)c1cc(Br)nn1-c1ncccc1Cl [Compound 2, N-[2,4-dichloro-6-[(ethylamino)carbonyl]phenyl]-N-methyl-1-(3-chloro-2-pyridinyl)-3-bromo-1H-pyrazole-5-carboxamide]
mortality at 12.5 µg/mL [1]: 90 to 100% | mortality at 50 µg/mL [1]: 90 to 100% | mortality at 500 µg/mL [1]: 90 to 100% | Activity against armyworm, further screening (in words) [1]: excellent activity | Median lethal concentration LC50 against Spodoptera litura, compared with D1 [2]: lower than that of chlorantraniliprole (D1) | Activity against Spodoptera litura (in words) [2]: high activity at very low concentration | LC50 [3]: < 1 µg/mL | Activity against diamondback moth (in words) [3]: high activity at very low concentration | mortality at 12.5 µg/mL [4]: 90 to 100% | mortality at 50 µg/mL [4]: 90 to 100% | mortality at 200 µg/mL [4]: 90 to 100% | mortality at 500 µg/mL [4]: 90 to 100% | LC50 [4]: < 1 µg/mL

CCN(CC)C(=O)c1cc(Cl)cc(Cl)c1N(C)C(=O)c1cc(Br)nn1-c1ncccc1Cl [Compound 15, N-[2,4-dichloro-6-[(diethylamino)carbonyl]phenyl]-N-methyl-1-(3-chloro-2-pyridinyl)-3-bromo-1H-pyrazole-5-carboxamide]
mortality at 12.5 µg/mL [1]: 90 to 100% | mortality at 50 µg/mL [1]: 90 to 100% | mortality at 500 µg/mL [1]: 90 to 100% | Activity against armyworm, further screening (in words) [1]: excellent activity | Median lethal concentration LC50 against Spodoptera litura, compared with D1 [2]: lower than that of chlorantraniliprole (D1) | Activity against Spodoptera litura (in words) [2]: high activity at very low concentration | Activity against diamondback moth (in words) [3]: high activity at very low concentration | mortality at 12.5 µg/mL [4]: 90 to 100% | mortality at 50 µg/mL [4]: 90 to 100% | mortality at 200 µg/mL [4]: 90 to 100% | mortality at 500 µg/mL [4]: 90 to 100% | LC50 [4]: < 1 µg/mL

CCNC(=O)c1cc(Cl)cc(Cl)c1N(CC)C(=O)c1cc(Br)nn1-c1ncccc1Cl [Compound 10, N-[2,4-dichloro-6-[(ethylamino)carbonyl]phenyl]-N-ethyl-1-(3-chloro-2-pyridinyl)-3-bromo-1H-pyrazole-5-carboxamide]
mortality at 12.5 µg/mL [1]: 90 to 100% | mortality at 50 µg/mL [1]: 90 to 100% | mortality at 500 µg/mL [1]: 90 to 100% | Activity against armyworm, further screening (in words) [1]: excellent activity | Median lethal concentration LC50 against Spodoptera litura, compared with D1 [2]: lower than that of chlorantraniliprole (D1) | Activity against Spodoptera litura (in words) [2]: high activity at very low concentration | Activity against diamondback moth (in words) [3]: high activity at very low concentration | mortality at 12.5 µg/mL [4]: 90 to 100% | mortality at 50 µg/mL [4]: 90 to 100% | mortality at 200 µg/mL [4]: 90 to 100% | mortality at 500 µg/mL [4]: 90 to 100% | LC50 [4]: < 1 µg/mL

CCN(C(=O)c1cc(Br)nn1-c1ncccc1Cl)c1c(Cl)cc(Cl)cc1C(=O)NC [Compound 9, N-[2,4-dichloro-6-[(methylamino)carbonyl]phenyl]-N-ethyl-1-(3-chloro-2-pyridinyl)-3-bromo-1H-pyrazole-5-carboxamide]
mortality at 50 µg/mL [1]: 90 to 100% | mortality at 500 µg/mL [1]: 90 to 100% | Activity against armyworm, further screening (in words) [1]: excellent activity | Activity against Spodoptera litura (in words) [2]: high activity at very low concentration | Activity against diamondback moth (in words) [3]: high activity at very low concentration | mortality at 12.5 µg/mL [4]: 90 to 100% | mortality at 50 µg/mL [4]: 90 to 100% | mortality at 200 µg/mL [4]: 90 to 100% | mortality at 500 µg/mL [4]: 90 to 100%
